Source: patent US10239957B2, “Peptide containing conjugates for dual molecular delivery of oligonucleotides” (Merck Sharp & Dohme Corp., priority 2013, dated 2019)
Where no end group is shown, it is not given here. [ ]: non-standard residue; d: D form. TGN = not defined here

Tested on: CTNNB1
Test: In vitro DMD assay: mRNA silencing enhancement by peptide conjugates after siRNA-IV treatment
Type: cell-based
Conditions: primary mouse hepatocytes, siRNA-IV 125 nM baseline
Procedure: Cryopreserved primary Mouse hepatocytes (Bioreclamation, LLC) were placed into Collagen Type I coated 96-well plates at 25,000 cells per well in serum-containing InVitroGRO CP media (Bioreclamation, LLC) and allowed 5 hours to attach. Media was replaced with InVitroGRO HI media and cells were treated with siRNA-IV at 125 nM [siRNA] for 1 hour. Media was replaced with InVitroGRO HI media and cells were treated for approximately 16 hours with experimental Peptide conjugates at various concentrations to establish a dose-response curve. Peptide conjugates were washed out after 16 hours with InVitroGRO HI media and cells allowed to incubate for an additional 24 hours. Cells were then lysed and mRNA expression of the siRNA target was measured by RT-qPCR (Applied Biosystems Taqman reagents). mRNA silencing activity of each Peptide conjugate was expressed as an enhancement above the baseline activity of 125 nM siRNA-IV alone with respect to the untreated cells and all siRNA target Ct values were normalized to PPIB mRNA for each well (dddCt) and summarized.
The structure of TGN-S-S-peptide is shown below and the activity data is listed in Table 5 (siRNA-IV concentration was kept at […]).

Row | Substance | In vitro dddCt (vs. baseline SCE dose) (Targeted peptide dose 8 nM) | In vitro dddCt (vs. baseline SCE dose) (Targeted peptide dose 40 nM) | In vitro dddCt (vs. baseline SCE dose) (Targeted peptide dose 200 nM) | In vitro dddCt (vs. baseline SCE dose) (Targeted peptide dose 1000 nM) | In vitro dddCt (vs. baseline SCE dose) (Targeted peptide dose 5000 nM) | also measured
1 | TGN-S-S-SEQ ID NO: 1633(D) ([dC]G[dL][dF]G[dE][dI][dH][dH][dL][dI][dH][dH]G[dL][dE][dN][dL][dI][dD][dW][dW][dN]G; not fully specified (residue 1); also: TGN attached via disulfide; listed as Homo sapiens) |  |  |  |  |  | In vitro dddCt (vs. baseline SCE dose) (Targeted peptide dose 125 nM): −0.39; In vitro dddCt (vs. baseline SCE dose) (Targeted peptide dose 625 nM): −0.57; In vitro dddCt (vs. baseline SCE dose) (Targeted peptide dose 3125 nM): −0.37; In vitro dddCt (vs. baseline SCE dose) (Targeted peptide dose 15625 nM): −0.69
2 | TGN-S-S-SEQ ID NO: 1654 (D)) ([dC]G[dL][dL][dE][dE][dI][dE][dE][dL][dL][dE][dE]G[dL][dE][dN][dL][dI][dD][dW]G[dN][dS]; not fully specified (residue 1); also: TGN attached via disulfide; listed as Homo sapiens) |  |  |  |  |  | In vitro dddCt (vs. baseline SCE dose) (Targeted peptide dose 125 nM): −1.05
3 | TGN-S-S-SEQ ID NO: 1717 (L) (C(TGN)FLGALFHALSHLLENLIDWWNG; reading uncertain; also: TGN disulfide conjugate at Cys1; listed as Homo sapiens) |  |  |  |  |  | In vitro dddCt (vs. baseline SCE dose) (Targeted peptide dose 25 nM): 0.61; In vitro dddCt (vs. baseline SCE dose) (Targeted peptide dose 625 nM): 0.37; In vitro dddCt (vs. baseline SCE dose) (Targeted peptide dose 3125 nM): 0.15
4 | TGN-S-S-SEQ ID NO: 1738 (D) (G[dL][dF]G[dE][dI][dE][dE][dL][dI][dE][dE]G[dL][dE][dN][dL][dI][dD][dW]G[dN]G[dL][dA][dE][dL][dA][dE][dA][dL][dE][dA][dL][dA][dA]GG[dS][dC]; not fully specified (residue 40); also: disulfide to TGN peptide via Cys40; listed as Homo sapiens) | −0.24 | −0.67 | −1.57 | −1.69 | −2.19 | 
5 | TGN-S-S-SEQ ID NO: 1740(D) (G[dL][dF][dE][dA][dI][dE]G[dF][dI][dE][dN]G[dW][dE]G[dL][dA][dE][dL][dA][dE][dA][dL][dE][dA][dL][dA][dA]GG[dS][dC]; not fully specified (residue 33); also: disulfide to TGN peptide via Cys33; listed as Homo sapiens) | −0.19 | −0.46 | −1.29 | −2.3 | −2.98 | 
6 | TGN-S-S-SEQ ID NO: 1741 (L) (GLFGALAEALAEALAEHLAEALAEALEALAAGGSC(TGN); reading uncertain; also: TGN linked to Cys via disulfide, TGN not defined; listed as Homo sapiens) | 0.03 | −0.11 | −0.25 | 0.98 | −0.58 | In vitro dddCt (vs. baseline SCE dose) (Targeted peptide dose 24 nM): 0; In vitro dddCt (vs. baseline SCE dose) (Targeted peptide dose 120 nM): 0.02; In vitro dddCt (vs. baseline SCE dose) (Targeted peptide dose 600 nM): −0.08; In vitro dddCt (vs. baseline SCE dose) (Targeted peptide dose 3000 nM): −0.4; In vitro dddCt (vs. baseline SCE dose) (Targeted peptide dose 15000 nM): −0.25
7 | TGN-S-S-SEQ ID NO: 1747 (D) ([dC]G[dL][dF]G[dE][dI][dE][dE][dL][dL][dE][dE]G[dL][dE][dN][dL][dI][dD][dW]G[dN]G; not fully specified (residue 1); also: disulfide to TGN peptide via Cys1; listed as Homo sapiens) | −0.23 | −0.7 | −1.53 | −2.08 | −1.98 | 
8 | TGN-S-S-SEQ ID NO: 1748 (D) ([dC]G[dL][dF]G[dE][dI][dE][dE][dL][dI][dE][dE][dA][dL][dE][dN][dL][dI][dD][dW]G[dN]G; not fully specified (residue 1); also: disulfide to TGN peptide via Cys1; listed as Homo sapiens) | −0.2 | −0.5 | −1.38 | −1.92 | −2.01 | 
9 | TGN-S-S-SEQ ID NO: 1749 (D) ([dC]G[dL][dF]G[dE][dI][dE][dE][dL][dI][dE][dE]G[dF][dE][dN][dL][dI][dD][dW]G[dN]G; not fully specified (residue 1); also: disulfide to TGN peptide via Cys1; listed as Homo sapiens) | 0.02 | −0.04 | −0.26 | −0.22 | −0.11 | 
10 | TGN-S-S-SEQ ID NO: 1751 (D) ([dC]G[dL][dF]G[dE][dI][dE][dE][dL][dI][dE][dE]G[dW][dE][dN][dL][dI][dD][dW]G[dN]G; not fully specified (residue 1); also: disulfide to TGN peptide via Cys1; listed as Homo sapiens) | −0.1 | −0.12 | 0.09 | −0.05 | 0.01 | 
11 | TGN-S-S-SEQ ID NO: 1752 (D) ([dC]G[dL][dF]G[dE][dI][dE][dE][dW][dI][dE][dE]G[dL][dE][dN][dL][dI][dD][dW]G[dN]G; not fully specified (residue 1); also: disulfide to TGN peptide via Cys1; listed as Homo sapiens) | −0.25 | −0.48 | −0.89 | −0.95 | −1.02 | 
12 | TGN-S-S-SEQ ID NO: 1753 (D) ([dC]G[dL][dF]G[dE][dI][dE][dE][dF][dI][dE][dE]G[dL][dE][dN][dL][dI][dD][dW]G[dN]G; not fully specified (residue 1); also: disulfide to TGN peptide via Cys1; listed as Homo sapiens) | 0.15 | 0.05 | −0.2 | −0.18 | −0.16 | 
13 | TGN-S-S-SEQ ID NO: 1755 (D) ([dC]G[dL][dF]G[dE][dI][dE][dE][dL][dF][dE][dE]G[dL][dE][dN][dL][dI][dD][dW]G[dN]G; not fully specified (residue 1); also: disulfide to TGN peptide via Cys1; listed as Homo sapiens) | −0.01 | −0.24 | −0.38 | −0.49 | −0.24 | 
14 | TGN-S-S-SEQ ID NO: 1758 (D) ([dC]G[dL][dF]G[dE][dI][dE][dE][dL][dI][dE][dE]G[dL][dE][dE][dL][dI][dD][dW]G[dN]G; not fully specified (residue 1); also: disulfide to TGN peptide via Cys1; listed as Homo sapiens) | 0.04 | −0.02 | −0.38 | −0.77 | −0.64 | 
15 | TGN-S-S-SEQ ID NO: 1759 (D) ([dC]G[dL][dF]G[dE][dI][dE][dE][dL][dI][dE][dE]G[dL][dE][dS][dL][dI][dD][dW]G[dN]G; not fully specified (residue 1); also: disulfide to TGN peptide via Cys1; listed as Homo sapiens) | −0.15 | −0.87 | −1.65 | −1.66 |  | 
16 | TGN-S-S-SEQ ID NO: 1760 (D) ([dC]G[dL][dF]G[dE][dI][dE][dE][dL][dI][dE][dE]G[dL][dE][dQ][dL][dI][dD][dW]G[dN]G; not fully specified (residue 1); also: disulfide to TGN peptide via Cys1; listed as Homo sapiens) | −0.09 | −1.01 | −1.6 | −1.8 | −1.46 | 
